Like-named read-outs stand apart in the source and are kept apart here. Starred links: 1 amine or outer side, 2 acyl side, 3 side chain; linkers in the order of their positions; H or OH if unused. Positions of bridges follow the written chain, without caps; N, C: chain ends. Non-standard residues stand in square brackets, D forms with d. Residues, ends and D or L forms follow the SMILES beside them. Chains are numbered I, II in the order given. X1 = NCCOCCOCCOCCOCCOCCOCCOCCOCCOCCOCCOCCOCCOCCOCCOCCOCCOCCOCCOCCOCCOCCOCCOCCOCCOCCOCCOCCOCCC(=O)NC(CCC(=O)[*:1])(CCC(=O)[*:2])CCC(=O)[*:3]; PEG6 = NCCOCCOCCOCCOCCOCCOCCC(=O)O
Columns and labels:
[1] = target: T1, RSV-A F protein (Human respiratory syncytial virus A, UniProt P03420); assay: cell-based
T1 construct: expressed in transfected cells; host or cells: 293 T cells
Description: The RSV Syncytia reduction assay was used to evaluate D-peptide inhibitors of RSV entry (IC50). In brief, 293 T cell were plated in a 96-well plate and a 6-well plate. The cells in the 96-well plate were co-transfected with DNA encoding the RSV F protein (or RSV G protein as a negative control) and DNA encoding firefly luciferase downstream of multiple GAL4 binding sites (CheckMate Mammalian Two-Hybrid system, Promega). These cells were designated the effector cells. The cells in the 6-well plate were transfected with GAL4:Id and VP16:MyoD fusion constructs, which interact and drive gene expression in the presence of GAL4 binding sites. These cells were the target cells. At 24 hours post-transfection, the media is removed from the effector cells and D-peptide inhibitors at 2× concentration (diluted in fresh media) were added. Also at 24 hours post-transfection, the target cells are washed with PBS, gently dissociated from the 6-well plate using Versene (0.48 mM EDTA in PBS), and overlaid (at equal volume) onto the effector cells containing 2× inhibitor. At 48 h post-transfection, the cells are lysed using Glo Lysis Buffer (Promega). Bright Glo luciferase assay substrate is added and luminescent signal from expressed luciferase is measured. Luciferase is only expressed in effector cells that fuse (form syncytia) with target cells.

[2] = system: HIV; conditions: standard viral passaging, escalating inhibitor; cited from earlier work
[3] = system: RSVA-IZN45 (SEQ ID NO: 34); conditions: Table 8 Result column
Text: AC-K-(PEG4)DDG-RSVP32 (SEQ ID NO:142) is an affinity matured RSV N-trimer binder identified from phage display and represents an optimized binding solution from a disulfide constrained CX10C (disulfide constrained 10-mer) library based on the 20 natural amino acids. […] Using the co-crystal structure of RSVP32 (SEQ ID NO:31) and RSVA-IZN21 (SEQ ID NO:34), a molecular-modeling suite (ICM-Pro, MolSoft LLC) was used to model various natural and non-natural amino acid substitutions and calculate binding energies. The following parameters were used to calculate binding energy: electrostatic boundary element energy, H-bonds, solvation energy estimated as surface tension, and side-chain entropy.

[4] = target: T2, RSV-B/IZN45 (Human respiratory syncytial virus B, UniProt O36634); assay: biochemical; assay type: binding; conditions: RSV-B/IZN45
T2 construct: N-trimer Mimics Synthesized; made in house; host or cells: chemical peptide synthesis
In short: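 Biotinylated L-form IZN45, with the groove-disrupted mutant as control, was captured on NeutrAvidin SPR lanes. Analytes were C-peptide T118 at various concentrations or D-peptides, run as duplicate or triplicate injections. Surfaces were regenerated with 0.1% SDS after each injection, and affinity and kinetics were derived.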

[5] = target: T3, RSV-A/IZN45 (Human respiratory syncytial virus A, UniProt P03420); assay: SPR binding to RSV-A IZN45 N-trimer mimic; conditions: Kd, RSV-A/IZN45
T3 construct: N-trimer Mimics Synthesized; made in house; host or cells: chemical peptide synthesis
Text: (§1) IZN45 N-trimer mimic comprises the IZ domain, a highly soluble, designed coiled-coil that helps solubilize the N-trimer, along with the C-terminal (bottom) 45 residues of the RSV N-trimer. IZN45 encompasses the full ordered portion of the N-trimer except for three N-terminal residues (removed to maintain a continuous heptad repeat with the IZ domain). The interactions between 35-residue RSV C-peptides, T108 and T118 (Lambert et al., 1996, Proc. Natl. Acad. Sci. USA 93:2186-2191), and IZN45 was examined by surface plasmon resonance (SPR). SPR is a gold standard assay to measure the kinetics and affinity of biological interactions. […] The Biotinylated L-form of RSV target IZN45 was captured onto one lane of a NeutrAvidin coated SPR chip. A mutant version of IZN45 containing four mutated residues along the N-trimer groove designed to disrupt binding (IZN45 Full Mut, negative control) was captured onto a separate lane of the NeutrAvidin chip. T118, corresponding to the C-terminal portion of the RSV F ectodomain, which is known to interact with the RSV N-trimer groove, was flowed over the various surfaces. […] The surfaces were regenerated with a detergent (0.1% SDS) after each injection of analyte. Various concentrations of T118 were measured in duplicate or triplicate injections. D-peptide interactions with IZN45 and IZN45-Full Mut surfaces were also measured using this method.
(§2) Peptides from the ‘winning’ phage clones from each library were synthesized as D-peptides. If solubility of the peptides was limited, N- or C-terminal charged residue(s) (e.g., lysine) were attached as necessary as previously described for HIV peptides in Eckert et al., 1999, Cell 99:103-15, incorporated by reference in its entirety. Binding affinity and kinetics of the D-peptide inhibitors to the IZN45 and IZN45 mutants was characterized by SPR (Biacore 3000), using methods as described in Welch et al., 2007, Proc. Natl. Acad. Sci. USA 104:16828-33, incorporated by reference in its entirety.

[6] = target: IZN45; assay: SPR binding to IZN45 N-trimer mimic, subtype not stated; set-up: species or system RSV
Text: as §1, §2

[7] = system: RSV; conditions: high-risk infants; cited from earlier work
[8] = target: IZN45 Full Mut (Human respiratory syncytial virus B, UniProt O36634, A170W/A177W/D194W/G184W/N197K); conditions: IZN45 Full Mut / IZN45_Mut, SPR
Text: as §1, with “method. […]” for “method.”

[9] = IC50, (L) inhibitors of RSV, controls for D-peptide studies, assay not stated in Table 6
[10] = subsequent trimer/compound made from peptide, SPR
[11] = running text/figure legend, IZN45 subtype not stated
[12] = synthesized peptide, KD determined by SPR
[13] = IC50, subsequent trimer/compound made from peptide, syncytia reduction assay using RSV-A F protein
[14] = (L) inhibitors of RSV, controls for D-peptide studies, assay not stated in Table 6, read-out: IC50

Work on “H-YGFDASISQVNEKINQSLAFIRKSDELLHNVNAGKST-NH2 [YG-T118]” yielded an IC50 [1, 9] of 8 µM.

In the case of enfuvirtide, the “time in which resistance develops” value [2] is listed as 2-3 weeks.

For “Ac-GECVN(HRG)PEWLLDWCGT-NH2 [SEQ ID NO: 147]”, the “Decreased potency compared to RSVP32” value [3] was 2.6-fold compared and the potency [3] was 0.065 µM.

For “I: Ac-[dK][PEG6]G[dA][dC][dR][dN][dE][dP][dH][dW][dL][dL][dD][dW][dC][dA][dA]-NH2 / II: Ac-[dK][PEG6]G[dA][dC][dR][dN][dE][dP][dH][dW][dL][dL][dD][dW][dC][dA][dA]-NH2 / III: Ac-[dK][PEG6]G[dA][dC][dR][dN][dE][dP][dH][dW][dL][dL][dD][dW][dC][dA][dA]-NH2 (linker I:1-II:1-III:1 via X1; disulfide I:5-I:16, II:5-II:16, III:5-III:16; C-terminus assumed) [Ac-K(PEG6)-RSVP20-trimer]”, the Kd [4, 10] was 0.0017 µM, the Kd [5, 10] was 0.0003 µM and the Kd [6, 11] was 0.0003 µM. The “improvement in binding affinity of trimer over the corresponding monomer” value ([6]; trimerization) was 10,000 fold.

Work on `CC(=O)N[C@H](CCCCN)C(=O)NCCOCCOCCOCCOCCOCCOCCC(=O)NCC(=O)N[C@H](C)C(=O)N[C@@H]1CSSC[C@H](C(=O)N[C@H](C)C(=O)N[C@H](C)C(N)=O)NC(=O)[C@@H](Cc2c[nH]c3ccccc23)NC(=O)[C@@H](CC(=O)O)NC(=O)[C@@H](CC(C)C)NC(=O)[C@@H](CC(C)C)NC(=O)[C@@H](Cc2c[nH]c3ccccc23)NC(=O)[C@@H](Cc2c[nH]cn2)NC(=O)[C@H]2CCCN2C(=O)[C@@H](CCC(=O)O)NC(=O)[C@@H](CC(N)=O)NC(=O)[C@@H](CCCNC(=N)N)NC1=O` [Ac-K(PEG6)-RSVP20] (Ac-[dK][PEG6]G[dA][dC][dR][dN][dE][dP][dH][dW][dL][dL][dD][dW][dC][dA][dA]-NH2; disulfide 5-16) yielded a Kd [4, 12] of 4.1 µM, a Kd [5, 12] of 3.7 µM and a Kd ([6]; b401, printed without unit) of 3.7 µM. The Kd [6, 11] was 3.7 µM.

“Ac-IKKEIEAIKKEQEAIKKKIEAIEKEVNKIKSALLSTNKAVVSLSNGVSVLTSKVLDLKNYIDKQLLPIV-NH2 [Ac-RSV-A IZN45]” showed an IC50 [1, 9] of 0.006 µM.

Work on GECVNRPEWLLDWCGT [RSVP32] yielded a potency [3] of 0.025 µM.

Compound “I: Ac-[dS][dM][dC][dV][dN][dR][dP][dE][dW][dL][dL][dD][dW][dC]G[dT]G[dD][dD][PEG6][dK]-NH2 / II: Ac-[dS][dM][dC][dV][dN][dR][dP][dE][dW][dL][dL][dD][dW][dC]G[dT]G[dD][dD][PEG6][dK]-NH2 / III: Ac-[dS][dM][dC][dV][dN][dR][dP][dE][dW][dL][dL][dD][dW][dC]G[dT]G[dD][dD][PEG6][dK]-NH2 (disulfide I:3-I:14, II:3-II:14, III:3-III:14; linker I:21-II:21-III:21 via X1; C-terminus assumed) [Ac-RSVP24-GDD(PEG6)K-trimer]” has an IC50 [1, 13] of 4.6 µM.

With “Ac-GECVNQPEWLLDWCGT-NH2 [SEQ ID NO: 151]” the “Decreased potency compared to RSVP32” value [3] was ~2-fold compared and the potency [3] was 0.053 µM.

Compound “LEGEVNKIKSALLSTNKAVVSLSNGVSVLTSKVLDLKNYIDKQLLPIVNIKKEIEAIKKEQEAIKKKIEAI-GKG-(Glu-biotinyl-PEG)-NH2 [RSVA N49IZ-GKG(Glu-Biotinyl-PEG)]” has an IC50 [1, 14] of 0.102 µM.

“I: Ac-[dK][PEG6]G[dH][dA][dC][dV][dN][dR][dP][dE][dW][dL][dL][dD][dW][dC]G[dR]G[dR][dR]-NH2 / II: Ac-[dK][PEG6]G[dH][dA][dC][dV][dN][dR][dP][dE][dW][dL][dL][dD][dW][dC]G[dR]G[dR][dR]-NH2 / III: Ac-[dK][PEG6]G[dH][dA][dC][dV][dN][dR][dP][dE][dW][dL][dL][dD][dW][dC]G[dR]G[dR][dR]-NH2 (linker I:1-II:1-III:1 via X1; disulfide I:6-I:17, II:6-II:17, III:6-III:17) [Ac-K(PEG6)G-RSVP26-GRR-trimer]” gave an IC50 [1, 13] of 5.5 µM.

`CC(=O)N[C@H](CCCCN)C(=O)NCC(=O)NCC(=O)N[C@H](C)C(=O)N[C@@H]1CSSC[C@H](C(=O)N[C@H](C)C(=O)N[C@H](C)C(N)=O)NC(=O)[C@@H](Cc2c[nH]c3ccccc23)NC(=O)[C@@H](CC(=O)O)NC(=O)[C@@H](CC(C)C)NC(=O)[C@@H](CC(C)C)NC(=O)[C@@H](Cc2c[nH]c3ccccc23)NC(=O)[C@@H](Cc2c[nH]cn2)NC(=O)[C@H]2CCCN2C(=O)[C@@H](CCC(=O)O)NC(=O)[C@@H](CC(N)=O)NC(=O)[C@@H](CCCNC(=N)N)NC1=O` [Ac-KG-RSVP20] (Ac-[dK]GG[dA][dC][dR][dN][dE][dP][dH][dW][dL][dL][dD][dW][dC][dA][dA]-NH2; disulfide 5-16) gave an IC50 ([1]; IC50, synthesized peptide, syncytia reduction assay using RSV-A F protein) of 673 µM.

Work on “I: Ac-YGFDASISQVNEKINQSLAFIRKSDELLHNVNAGKSTG[PEG6]KGKG-NH2 / II: Ac-YGFDASISQVNEKINQSLAFIRKSDELLHNVNAGKSTG[PEG6] / III: Ac-YGFDASISQVNEKINQSLAFIRKSDELLHNVNAGKSTG[PEG6] (amide I:40-II:C, I:42-III:C) [YG-T118-Tricasso]” yielded an IC50 [1, 9] of 0.65 µM.

In the case of “Synagis: monoclonal antibody (mAb) given prophylactically throughout RSV season”, the reduction of hospitalizations [7] is given as 55%.

With Ac-GEVCRPEWLLDWCGT-NH2 [SEQ ID NO: 159] the “Decreased potency compared to RSVP32” value [3] was 14.4-fold and the potency [3] was 0.36 µM.

For “(biotin-PEG2)GKG-IKKEIEAIKKEQEAIKKKIEALEGEVNKIKSALLSTNKAVVSLSNGVSVLTSKVLDLKNYIDKQLLPIV-NH2 [(Biotin-PEG2)GKG-RSVA IZN48]”, the IC50 [1, 14] was 0.215 µM.

In the case of “I: Ac-[dK][PEG6][dD][dD]G[dS][dM][dC][dV][dN][dR][dP][dE][dW][dL][dL][dD][dW][dC]G[dT]-NH2 / II: Ac-[dK][PEG6][dD][dD]G[dS][dM][dC][dV][dN][dR][dP][dE][dW][dL][dL][dD][dW][dC]G[dT]-NH2 / III: Ac-[dK][PEG6][dD][dD]G[dS][dM][dC][dV][dN][dR][dP][dE][dW][dL][dL][dD][dW][dC]G[dT]-NH2 (linker I:1-II:1-III:1 via X1; disulfide I:8-I:19, II:8-II:19, III:8-III:19) [Ac-K(PEG6)DDG-RSVP24-trimer]”, the IC50 [1, 13] is reported as 5.5 µM.

With “T118: 35-residue RSV C-peptide corresponding to the C-terminal portion of the RSV F ectodomain (FDASISQVNEKINQSLAFIRKSDELLHNVNAGKST)” the “binding to mutant control target” value [8] was “did not bind”.

Source: patent US10765754B2, “Compositions and methods related to inhibition of respiratory syncytial virus entry” (priority 2015, dated 2020)
